The subject of one data set is lily cut flower. Nature of the data set: Aromatic substance formation inhibition effect in cut flowers, organoleptic test (lily). Type of data set: in vivo. The following applies: 0.13% (w/v, 5 mM) aqueous solution, after one day, all of ten expert panelists, versus water. The method, then: (§1) A 0.13% (w/v, 5 mM) aqueous solution of the CPEM-β-Glc obtained in Example 2 was prepared. The obtained aqueous solution (300 ml) was introduced into an Erlenmeyer flask, and lily, chrysanthemum, and gypsophila were put into it one for each. On the other hand, as control, the flowers were similarly put into water without the CPEM-β-Glc. After 1, 2 and 4 days, organoleptic test was performed by ten expert panelists as for the aroma emitted from these cut flowers.

Data set [1] deals with pNP-β-Glc activity of rose petal crude enzyme solution. Description: Inhibition test for rose crude enzyme. Type of data set: biochemical, Rosa gybrida CV. Wendy. How it is done:
(§2) β-Glucosidase inhibition test was performed as follows. 10 mM p-nitrophenyl-p-glucoside (100 μl, abbreviated as pNP-β-Glc hereinafter), 1 M sodium acetate buffer (pH 5.0, 50 μl), pure-water, and 100 mM inhibitor (10 μl) were taken into a short test tube so that the mixture should have a total volume of 800 μl, and preincubated at 40° C. for 5 minutes. After the incubation, the obtained mixture was added with 50 μl of enzyme solution diluted to a suitable concentration, and allowed to react at 40° C. After 10 minutes, the enzyme was inactivated by adding 500 μl of 1 M sodium carbonate to the obtained reaction mixture, and the absorbance at 405 nm was measured and used for calculation of the amount of free p-nitrophenol. As the inhibitor, cyclopropylmethyl-β-glucoside (CPAM-β-Glc), cyclopentyl-β-glucoside (CPE-β-Glc), and cyclopentylmethyl-β-glucoside (CPEM-β-Glc) all prepared by the methods of Examples 1 and 2 were used. As the β-glucosidase, chromatographically purified preparations derived from Aspergillus niger, Trichoderma viride, and Almond (all from SIGMA) were used.
Only petals (about 70 g) were collected from about ten marketed roses (variety; Rosa gybrida CV. Wendy), added with acetone (500 ml) cooled to −20° C., and pulverized by a homogenizer while cooled with dry ice. The obtained pulverized mixture was filtered through a Buchner funnel put with a No. 2 filter paper sheet, and sufficiently washed with acetone at −20° C. The obtained filtrate was dried in a desiccator under reduced pressure (room temperature, 3 hours) to obtain 6 g of crude enzyme powder. This powder was added to 100 mM sodium phosphate buffer (pH 7.0, 120 ml) and stirred at 4° C. for 3 hours, and the insoluble matter was removed by centrifugation. The filtrate was subjected to ultrafiltration utilizing an ultrafiltration membrane PM-10 (Amicon) to finally afford 15 ml of crude enzyme solution.
In the same manner as in Example 3, the inhibition activity of the CPEM-β-Glc obtained in Example 2 for the pNP-β-Glc activity of the above crude enzyme solution was measured. […]

Another data set relates to gypsophila cut flower. Nature of the data set: Aromatic substance formation inhibition effect in cut flowers, organoleptic test (gypsophila). The following applies: 0.13% (w/v, 5 mM) aqueous solution, after one day, all of ten expert panelists, versus water. It counts as in vivo. The method, then: as §1
Data set [2] deals with β-glucosidase derived from Aspergillus niger (Aspergillus niger, UniProt A2RAL4). Nature of the data set: β-Glucosidase inhibition test (pNP-β-Glc), A. niger enzyme. Type of data set: biochemical. How it is done:
as §2

The test system of data set [3] is lily, chrysanthemum, and gypsophila cut flowers. Nature of the data set: Freshness of cut flowers in the aroma test. Type of data set: in vivo. The following applies: 0.13% (w/v, 5 mM) aqueous solution. The method, then:
as §1

Another data set deals with chrysanthemum cut flower. Description: Aromatic substance formation inhibition effect in cut flowers, organoleptic test (chrysanthemum). The following applies: 0.13% (w/v, 5 mM) aqueous solution, after one day, all of ten expert panelists, versus water. Type of data set: in vivo. The method, then: as §1
Data set [4] deals with β-glucosidase derived from Almond. Nature of the data set: β-Glucosidase inhibition test (pNP-β-Glc), almond enzyme. Type of data set: biochemical. The following applies: inhibitor concentration of 1.25 mM. How it is done:
as §2

For data set [5], the target named is β-glucosidase derived from Trichoderma viride (Trichoderma viride, UniProt Q6UJY0). Nature of the data set: β-Glucosidase inhibition test (pNP-β-Glc), T. viride enzyme. Type of data set: biochemical. How it is done:
as §2

`OCC1OC(OCC2CCCC2)C(O)C(O)C1O` (stereo not drawn) [CPEM-β-Glc, cyclopentylmethyl-β-glucoside]: the “aroma emitted from cut flowers, organoleptic test” value with lily cut flower, with gypsophila cut flower and in the data set with chrysanthemum cut flower was “distinctly reduced” throughout. In addition, the inhibition activity result in data set [1] (at 3 mM) is recorded as “about 50%”; in data set [1] (at 4 mM) it was “about 70%”; in data set [1] (at 5 mM), “about 90%”. Further, the “inhibition of β-glucosidase, in words” value in data set [2] (A. niger enzyme, inhibitor concentration of 1.25 mM) is listed as “relatively weak inhibition”; in data set [4] it was “strongly inhibited”; in data set [5] (T. viride enzyme, inhibitor concentration of 1.25 mM), “no inhibition”. In addition, the IC50 in data set [2] (A. niger β-glucosidase, concentration varied from 0 to 5 mM, read-out: 50% inhibition concentration) is 12.6 mM; in data set [5] (T. viride β-glucosidase, concentration varied from 0 to 5 mM, read-out: 50% inhibition concentration) it was 11.5 mM. In addition, in data set [3], the “freshness of the cut flowers, added versus not added” value is reported as “No difference in freshness”.
